The data set can be described thus: molar enthalpy of vaporization or sublimation. The note with it: 298.15 K; Liquid; Static calorimetry.

Numbers after ± are expanded uncertainties.

Take `O=C1C=CCC1` [2-cyclopenten-1-one]: the molar enthalpy came out at 52.4 ± 1.5 kJ/mol.
In the case of `CC1=CC(=O)CC1` [3-methyl-2-cyclopenten-1-one], the molar enthalpy stood at 52.4 ± 1.4 kJ/mol.

These data come from the NIST ThermoML archive (doi:10.1016/j.jct.2019.01.012).
